Assay results published in PMC12669040, “Tumour-specific STING agonist synthesis via a two-component prodrug system” (Nature Chemistry, 2025).
Several values for one entry are separate records, joined by “and”; a condition that tells them apart may be missing. Equal entries are not always repeated.

Assays:
[1] = Colorimetric alkylation rate constant assay with thiol N1; type: physicochemical; conditions: for remaining [A]: N1 from calibration curve (N1 in uM); for remaining [A] / remaining [B]: in µM
[2] = Colorimetric alkylation rate constant assay with TNB^2− as non-specific thiol; type: physicochemical; design: second-order: unit not given here; conditions: for remaining [B]: in µM
[3] = Time 2891 sec, [B]0 = 250, Replicates 1-3
[4] = Time 3071 sec, [B]0 = 250, Replicates 1-3
[5] = Time 3252 sec, [B]0 = 250, Replicates 1-3
[6] = Time 3433 sec, [B]0 = 250, Replicates 1-3
[7] = Time 3613 sec, [B]0 = 250, Replicates 1-3

remaining [A] ([1]; Replicate 1, time 576 sec): 47.8044
remaining [B] ([1]; Replicate 1, time 576 sec, [B]0 = 250): 193.684
remaining [A] ([1]; Replicate 1, time 606 sec): 46.4649
remaining [B] ([1]; Replicate 1, time 606 sec, [B]0 = 250): 192.345
remaining [A] ([1]; Replicate 2, time 576 sec): 30.5226
remaining [B] ([1]; Replicate 2, time 576 sec, [B]0=250): 177.381
remaining [A] ([1]; Replicate 2, time 606 sec): 29.3038
remaining [B] ([1]; Replicate 2, time 606 sec, [B]0=250): 176.162
remaining [A] ([1]; Replicate 3, time 576 sec): 37.5866
remaining [B] ([1]; Replicate 3, time 576 sec, [B]0=250): 183.039
remaining [A] ([1]; Replicate 3, time 606 sec): 36.1527
remaining [B] ([1]; Replicate 3, time 606 sec, [B]0=250): 181.605
remaining [B] ([1]; time 0 sec, [B]0 = 250, replicates 1-3): 244.616 and 236.007 and 232.398
remaining [B] ([1]; time 30 sec, [B]0 = 250, replicates 1-3): 239.016 and 232.843 and 226.134
remaining [B] ([1]; time 60 sec, [B]0 = 250, replicates 1-3): 231.981 and 229.623 and 220.975
remaining [B] ([1]; time 91 sec, [B]0 = 250, replicates 1-3): 228.545 and 226.744 and 217.517
remaining [B] ([1]; time 121 sec, [B]0 = 250, replicates 1-3): 224.298 and 223.153 and 210.771
remaining [B] ([1]; time 151 sec, [B]0 = 250, replicates 1-3): 215.18 and 221.016 and 204.96
remaining [B] ([1]; time 182 sec, [B]0 = 250, replicates 1-3): 211.366 and 218.251 and 202.608
remaining [B] ([1]; time 212 sec, [B]0 = 250, replicates 1-3): 208.552 and 215.829 and 199.773
remaining [B] ([1]; time 242 sec, [B]0 = 250, replicates 1-3): 206.279 and 213.378 and 197.222
remaining [B] ([1]; time 273 sec, [B]0 = 250, replicates 1-3): 203.276 and 211.041 and 194.671
remaining [B] ([1]; time 303 sec, [B]0 = 250, replicates 1-3): 200.625 and 209.074 and 192.148
remaining [B] ([1]; time 333 sec, [B]0 = 250, replicates 1-3): 197.649 and 207.193 and 190.108
remaining [B] ([1]; time 364 sec, [B]0 = 250, replicates 1-3): 195.376 and 205.141 and 187.925
remaining [B] ([1]; time 394 sec, [B]0 = 250, replicates 1-3): 193.158 and 203.203 and 186.139
remaining [B] ([1]; time 424 sec, [B]0 = 250, replicates 1-3): 190.588 and 201.351 and 184.155
remaining [B] ([1]; time 454 sec, [B]0 = 250, replicates 1-3): 188.694 and 199.783 and 182.426
remaining [B] ([1]; time 485 sec, [B]0 = 250, replicates 1-3): 186.908 and 198.016 and 181.378
remaining [B] ([1]; time 515 sec, [B]0 = 250, replicates 1-3): 185.014 and 196.591 and 179.79
remaining [B] ([1]; time 545 sec, [B]0 = 250, replicates 1-3): 184.094 and 195.166 and 178.713
remaining [B] ([2]; Replicate 1, 723 sec, [B]0 = 250): 246.895
remaining [B] ([2]; Replicate 1, 903 sec, [B]0 = 250): 246.517
remaining [B] ([2]; Replicate 1, 1084 sec, [B]0 = 250): 246.063
remaining [B] ([2]; Replicate 1, 1265 sec, [B]0 = 250): 245.71
remaining [B] ([2]; Replicate 1, 1445 sec, [B]0 = 250): 245.231
remaining [B] ([2]; Replicate 1, 1626 sec, [B]0 = 250): 244.866
remaining [B] ([2]; Replicate 1, 1806 sec, [B]0 = 250): 244.513
remaining [B] ([2]; Replicate 1, 1988 sec, [B]0 = 250): 243.833
remaining [B] ([2]; Replicate 1, 2168 sec, [B]0 = 250): 243.543
remaining [B] ([2]; Replicate 1, 2349 sec, [B]0 = 250): 242.9
remaining [B] ([2]; Replicate 1, 2530 sec, [B]0 = 250): 242.61
remaining [B] ([2]; Replicate 1, 2710 sec, [B]0 = 250): 242.169
remaining [B] ([2]; Replicate 2, 542 sec, [B]0=250): 248.022
remaining [B] ([2]; Replicate 2, 723 sec, [B]0=250): 247.165
remaining [B] ([2]; Replicate 2, 903 sec, [B]0=250): 246.925
remaining [B] ([2]; Replicate 2, 1084 sec, [B]0=250): 246.522
remaining [B] ([2]; Replicate 2, 1265 sec, [B]0=250): 246.258
remaining [B] ([2]; Replicate 2, 1445 sec, [B]0=250): 245.88
remaining [B] ([2]; Replicate 2, 1626 sec, [B]0=250): 245.262
remaining [B] ([2]; Replicate 2, 1806 sec, [B]0=250): 245.073
remaining [B] ([2]; Replicate 2, 1988 sec, [B]0=250): 244.304
remaining [B] ([2]; Replicate 2, 2168 sec, [B]0=250): 244.191
remaining [B] ([2]; Replicate 2, 2349 sec, [B]0=250): 243.649
remaining [B] ([2]; Replicate 2, 2530 sec, [B]0=250): 243.511
remaining [B] ([2]; Replicate 2, 2710 sec, [B]0=250): 243.032
remaining [B] ([2]; Replicate 3, 723 sec, [B]0=250): 248.495
remaining [B] ([2]; Replicate 3, 903 sec, [B]0=250): 247.89
remaining [B] ([2]; Replicate 3, 1084 sec, [B]0=250): 247.373
remaining [B] ([2]; Replicate 3, 1265 sec, [B]0=250): 246.731
remaining [B] ([2]; Replicate 3, 1445 sec, [B]0=250): 246.365
remaining [B] ([2]; Replicate 3, 1626 sec, [B]0=250): 245.899
remaining [B] ([2]; Replicate 3, 1806 sec, [B]0=250): 245.521
remaining [B] ([2]; Replicate 3, 1988 sec, [B]0=250): 245.08
remaining [B] ([2]; Replicate 3, 2168 sec, [B]0=250): 244.563
remaining [B] ([2]; Replicate 3, 2349 sec, [B]0=250): 244.16
remaining [B] ([2]; Replicate 3, 2530 sec, [B]0=250): 243.744
remaining [B] ([2]; Replicate 3, 2710 sec, [B]0=250): 243.505
remaining [B] [2, 3]: 243.089 and 241.779 and 242.654
remaining [B] [2, 4]: 242.547 and 241.413 and 242.377
remaining [B] [2, 5]: 242.194 and 241.111 and 242.036
remaining [B] [2, 6]: 241.728 and 240.556 and 241.482
remaining [B] [2, 7]: 241.426
SMILES: C=CS(=O)(=O)Nc1cc2cc(C(=O)CCC(=O)O)sc2cc1OC [Compound E1]
second-order ([1]; Replicate 1, time 576 sec, second-order plot value): 0.003586
second-order ([1]; Replicate 1, time 606 sec, second-order plot value): 0.003734
second-order ([1]; Replicate 2, time 576 sec, second-order plot value): 0.005955
second-order ([1]; Replicate 2, time 606 sec, second-order plot value): 0.006185
second-order ([1]; Replicate 3, time 576 sec, second-order plot value): 0.00489
second-order ([1]; Replicate 3, time 606 sec, second-order plot value): 0.005103
second-order ([1]; time 0 sec, replicates 1-3): 0.000777 and 0.0002138 and 0.0005945
second-order ([1]; time 30 sec, replicates 1-3): 0.001109 and 0.0004543 and 0.0007469
second-order ([1]; time 60 sec, replicates 1-3): 0.00141 and 0.0007862 and 0.0009101
second-order ([1]; time 91 sec, replicates 1-3): 0.001628 and 0.0009622 and 0.001063
second-order ([1]; time 121 sec, replicates 1-3): 0.002097 and 0.001194 and 0.001265
second-order ([1]; time 151 sec, replicates 1-3): 0.002555 and 0.001754 and 0.001392
second-order ([1]; time 182 sec, replicates 1-3): 0.002758 and 0.002017 and 0.001562
second-order ([1]; time 212 sec, replicates 1-3): 0.003017 and 0.002225 and 0.001719
second-order ([1]; time 242 sec, replicates 1-3): 0.003266 and 0.002402 and 0.001885
second-order ([1]; time 273 sec, replicates 1-3): 0.003532 and 0.002649 and 0.002052
second-order ([1]; time 303 sec, replicates 1-3): 0.003812 and 0.002882 and 0.002197
second-order ([1]; time 333 sec, replicates 1-3): 0.004053 and 0.00316 and 0.002343
second-order ([1]; time 364 sec, replicates 1-3): 0.004327 and 0.003387 and 0.002508
second-order ([1]; time 394 sec, replicates 1-3): 0.004565 and 0.003621 and 0.002671
second-order ([1]; time 424 sec, replicates 1-3): 0.004845 and 0.003909 and 0.002833
second-order ([1]; time 454 sec, replicates 1-3): 0.005104 and 0.004135 and 0.002976
second-order ([1]; time 485 sec, replicates 1-3): 0.005268 and 0.00436 and 0.003143
second-order ([1]; time 515 sec, replicates 1-3): 0.005529 and 0.004611 and 0.003284
second-order ([1]; time 545 sec, replicates 1-3): 0.005715 and 0.004739 and 0.003429
second-order [2, 3]: 0.0003098 and 0.0002905 and 0.000349
second-order [2, 4]: 0.0003222 and 0.0003146 and 0.0003655
second-order [2, 5]: 0.0003374 and 0.0003303 and 0.0003793
second-order [2, 6]: 0.0003624 and 0.0003513 and 0.0004046
second-order [2, 7]: 0.0003733 and 0.000365 and 0.0004313
second-order ([2]; Time 3794 sec, [B]0 = 250, Replicates 1-3): 0.0003951 and 0.0003787 and 0.000436
second-order ([2]; Time 3974 sec, [B]0 = 250, Replicates 1-3): 0.0004043 and 0.0004098 and 0.0004713
second-order ([2]; Time 4155 sec, [B]0 = 250, Replicates 1-3): 0.0004287 and 0.0004139 and 0.0004754
second-order ([2]; Time 4336 sec, [B]0 = 250, Replicates 1-3): 0.0004451 and 0.0004267 and 0.000504
second-order ([2]; Time 4516 sec, [B]0 = 250, Replicates 1-3): 0.0004586 and 0.0004477 and 0.0005214
second-order ([2]; Time 4697 sec, [B]0 = 250, Replicates 1-3): 0.000471 and 0.0004671 and 0.0005431
second-order ([2]; Time 4878 sec, [B]0 = 250, Replicates 1-3): 0.000487 and 0.0004831 and 0.0005503
second-order ([2]; Time 5058 sec, [B]0 = 250, Replicates 1-3): 0.0005055 and 0.0005004 and 0.0005698
second-order ([2]; Time 5239 sec, [B]0 = 250, Replicates 1-3): 0.0005247 and 0.0005046 and 0.0005919
second-order ([2]; Time 5419 sec, [B]0 = 250, Replicates 1-3): 0.000547 and 0.000531 and 0.0006054
second-order ([2]; Time 5600 sec, [B]0 = 250, Replicates 1-3): 0.0005568 and 0.0005491 and 0.0006296
second-order ([2]; Time 5781 sec, [B]0 = 250, Replicates 1-3): 0.0005744 and 0.0005674 and 0.0006477
second-order ([2]; Time 5961 sec, [B]0 = 250, Replicates 1-3): 0.0005953 and 0.0005931 and 0.0006685
